From paper doi:10.1101/2022.02.04.479134, “A Suite of TMPRSS2 Assays for Screening Drug Repurposing Candidates as Potential Treatments of COVID-19” (bioRxiv, 2022)
“Also recorded” adds a separate entry of the source. Where a name gives a salt, the structure may show the parent alone. Read-outs that look alike come from different tables or passages of the source.

Columns and labels:
[1] = Fluorescence counterassay (AMC quenching); conditions: 1 μM AMC; for Biochemical (fluorogenic counterassay) Max Response: 0% = 1 μM AMC, −100% = 0.1 μM AMC, <0% = quenching
Description: Assay buffer (50 mM Tris pH 8, 150 mM NaCl, 0.01% Tween20) was added to the full plate to give a total reaction volume of 5 μL. Detection was done using the PHERAstar with 340 nm excitation and 440 nm emission. Fluorescence was normalized relative to a negative control containing 7-amino-4-methylcoumarin at 0.1 μM (−100% activity, low fluorescence) and a positive control containing 7-amino-4-methylcoumarin at 1 μM (0% activity, high fluorescence).

Calu-3 cells [2] = conditions: for AC50: read-out: Calu-3 (cytotoxicity) AC50, N/D = Not Detected
[3] = target: T1, Recombinant Human TMPRSS2 (Homo sapiens, UniProt O15393); assay: biochemical; format: biochemical; conditions: for AC50: 10 μM Boc-QAR-AMC, 0.175 μM TMPRSS2, 1 h RT, 11-point dose-response in triplicate, read-out: Biochemical (fluorogenic) AC50
Description: Buffer conditions were tested and optimized to include: 50 mM Tris pH 8, 150 mM NaCl and 0.01% Tween20.
Following 1 h of incubation at RT, detection was done using the PHERAstar with 340 nm excitation and 440 nm emission (Table 1).
To determine compound activity in the assay, the concentration–response data for each sample was plotted and modeled by a four-parameter logistic fit yielding IC50 and maximal response values. […] Data normalization, visualization, and curve fitting were performed using Prism (GraphPad, San Diego, CA).

[4] = target: T1, Recombinant Human TMPRSS2; assay: biochemical; format: biochemical; conditions: for AC50: 10 μM peptide, 0.4 μM TMPRSS2, 1 h RT, N/D = Not Detected, read-out: Biochemical (mass spectrometry) AC50; for IC50: biochemical assay not given, matches mass spectrometry values, read-out: IC50 inhibition of TMPRSS2
in vitro = conditions: human
recombinant TMPRSS2 = conditions: fluorogenic peptide substrate; cited from earlier work
[5] = tested on: H1N1 and H3N2 influenza virus strains; conditions: Calu-3 cells; cited from earlier work
Calu-3 cells [6] = conditions: cited from earlier work

T1 sequence (O15393 106-492): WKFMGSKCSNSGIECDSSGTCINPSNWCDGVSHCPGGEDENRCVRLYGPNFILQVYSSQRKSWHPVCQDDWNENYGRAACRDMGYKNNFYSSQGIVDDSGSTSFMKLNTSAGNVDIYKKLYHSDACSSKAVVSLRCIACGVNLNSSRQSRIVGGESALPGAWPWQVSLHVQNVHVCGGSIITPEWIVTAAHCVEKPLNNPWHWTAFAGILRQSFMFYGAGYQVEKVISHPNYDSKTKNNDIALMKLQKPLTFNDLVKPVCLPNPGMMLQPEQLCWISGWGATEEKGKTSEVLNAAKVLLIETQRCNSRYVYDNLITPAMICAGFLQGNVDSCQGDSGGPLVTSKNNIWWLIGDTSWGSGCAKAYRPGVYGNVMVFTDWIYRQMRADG

Compound	Biochemical (fluorogenic counterassay) Max Response [1] [%]	Calu-3 (cytotoxicity) Max Response (Calu-3 cells [2]; ATP content, no PP) [%]	AC50 [3] [µM]	AC50 [4] [µM]	other results
NCCc1ccc(S(=O)(=O)F)cc1 [4-(2-aminoethyl)benzenesulfonyl fluoride]	23	0	–	–	–
O=c1ccc2ccc(O)cc2o1 [7-Hydroxycoumarin]	1373	0	8.62	–	inhibition of TMPRSS2 in the fluorogenic assay ([3]; at 40 μM): nearly full inhibition; inhibition of TMPRSS2 in the mass spectrometry detection assay ([4]; dose-response): no inhibition detected; also recorded: did not show inhibition
N=C(N)NC(=O)c1nc(Cl)c(N)nc1N [Amiloride HCl]	26.6	0	8.29	9	–
CC(C)C[C@H](NC(=O)[C@H](Cc1ccccc1)NC(=O)c1cnccn1)B(O)O [Bortezomib]	4.6	-97	11.4	9.77	cytotoxicity towards Calu-3 cells (Calu-3 cells [2]; cytotoxicity counter-assay): high cytotoxicity; AC50 (in vitro): 0.29 µM
CN(C)C(=O)COC(=O)Cc1ccc(OC(=O)c2ccc(NC(=N)N)cc2)cc1 [Camostat]	-5	0	–	–	–
NC[C@H]1CC[C@H](C(=O)Oc2ccc(CCC(=O)O)cc2)CC1 [Cetraxate HCl]	2.7	0	2.34	5.52	–
N=C(N)c1cccc(CC(NS(=O)(=O)c2cccc(-c3ccc(Cl)cc3Cl)c2)C(=O)N2CCC(CCN)CC2)c1 (stereo not shown) [Cmpd 92 (Meyer)]	-5.6	0	0.41	0.28	IC50 [4]: ~0.3 µM; Ki (recombinant TMPRSS2): 0.0009 µM; replication of H1N1 and H3N2 influenza virus strains [5]: significantly reduced; cytotoxicity within Calu-3 cells (Calu-3 cells [6]): not cytotoxic
N=C(N)c1cccc(CC(NS(=O)(=O)c2cccc(-c3ccc(Cl)cc3Cl)c2)C(=O)N2CCC(NC(=O)NC3CCCCC3)CC2)c1 (stereo not shown) [Cmpd 114 (Meyer)]	-6.2	0	0.57	0.26	IC50 [4]: ~0.3 µM; Ki (recombinant TMPRSS2): 0.005 µM; cytotoxicity within Calu-3 cells (Calu-3 cells [6]): not cytotoxic
CCOC(=O)c1cc(=O)c2c(OCC(COc3cccc4oc(C(=O)OCC)cc(=O)c34)OC(=O)[C@@H](N)CCCCN)cccc2o1 [Cromoglicate lisetil]	-1.4	0	16.5	25.1	–
COC(=O)N[C@H](C(=O)N1CCC[C@H]1c1nc(-c2ccc(-c3ccc(-c4c[nH]c([C@@H]5CCCN5C(=O)[C@@H](NC(=O)OC)C(C)C)n4)cc3)cc2)c[nH]1)C(C)C [Daclatasvir dihydrochloride]	447	0	13.3	–	–
O=c1ccn([C@H]2C[C@H](O)[C@@H](CO)O2)c(=O)[nH]1 [Deoxyuridine]	19.3	0	16	–	–
CN(C(=O)C(Cl)Cl)c1ccc(OC(=O)c2ccco2)cc1 [Diloxanide furoate]	-3.2	0	11.1	21.7	–
Nc1nc2ncc(CNc3ccc(C(=O)N[C@@H](CCC(=O)O)C(=O)O)cc3)nc2c(=O)[nH]1 [Folic Acid]	14.5	0	13.3	–	–
CCOC(=O)c1ccc(OC(=O)CCCCCNC(=N)N)cc1 [Gabexate mesilate]	17.4	0	–	–	–
CC(=O)N[C@@H](CC(C)C)C(=O)N[C@@H](CC(C)C)C(=O)N[C@H](C=O)CCCNC(=N)N [Leupeptin]	0.5	0	1.58	0.72	–
N=C(N)c1ccc2cc(OC(=O)c3ccc(N=C(N)N)cc3)ccc2c1 [Nafamostat mesilate]	-1.9	0	–	–	–
COC(=O)[C@H](Cc1cccc(C(=N)N)c1)[C@@H](C)NC(=O)c1ccc(-c2cc[n+]([O-])cc2)cc1 [Otamixaban]	-1	0	–	–	–
N=C(N)c1ccc2nc(-c3cc(CC(=O)N[C@@H](CC(=O)O)C(=O)O)cc(-c4cc(S(N)(=O)=O)ccc4O)c3O)[nH]c2c1 [PCI-27483]	61.3	0	1.8	1.4	–
N=C(N)c1ccc(OCCCCCOc2ccc(C(=N)N)cc2)cc1 [Pentamidine isethionate]	-0.05	–	9.49	7.6	AC50 (in vitro): 18.6 µM
O=S(=O)(F)Cc1ccccc1 [Phenylmethanesulfonyl fluoride (PMSF), Phenylmethanesulfonyl fluoride]	-2.8	0	–	–	–
COC[C@H]1C[C@@H](c2ncc(-c3ccc4c(c3)COc3cc5c(ccc6nc([C@@H]7CC[C@H](C)N7C(=O)[C@@H](NC(=O)OC)C(C)C)[nH]c65)cc3-4)[nH]2)N(C(=O)[C@H](NC(=O)OC)c2ccccc2)C1 [Velpatasvir]	442	0	14.7	13.2	–
AGN194310	-9.2	0	7.9	–	–
Dibromopropamidine Dihydrochloride	87	-85	4.4	4.34	AC50 (Calu-3 cells [2]; ATP content, no PP): 25.1 µM
G-007-LK	424	0	14.7	–	–
Hydroxystilbamidine bis(methanesulfonate)	-6.4	–	3.03	2.31	Calu-3 (cytotoxicity) Max Response (Calu-3 cells [2]): 0%
Marizomib / Salinosporamide A	2.2	-98	14.7	22.9	AC50 (Calu-3 cells [2]; ATP content, no PP): 0.1 µM
tannic acid	–	–	–	–	quenching of the AMC fluorescent signal [1]: ~ 30%
